The target in one experiment is T1, HDAC6 (Homo sapiens, UniProt Q9UBN7).
T1 sequence (Q9UBN7 1-1215): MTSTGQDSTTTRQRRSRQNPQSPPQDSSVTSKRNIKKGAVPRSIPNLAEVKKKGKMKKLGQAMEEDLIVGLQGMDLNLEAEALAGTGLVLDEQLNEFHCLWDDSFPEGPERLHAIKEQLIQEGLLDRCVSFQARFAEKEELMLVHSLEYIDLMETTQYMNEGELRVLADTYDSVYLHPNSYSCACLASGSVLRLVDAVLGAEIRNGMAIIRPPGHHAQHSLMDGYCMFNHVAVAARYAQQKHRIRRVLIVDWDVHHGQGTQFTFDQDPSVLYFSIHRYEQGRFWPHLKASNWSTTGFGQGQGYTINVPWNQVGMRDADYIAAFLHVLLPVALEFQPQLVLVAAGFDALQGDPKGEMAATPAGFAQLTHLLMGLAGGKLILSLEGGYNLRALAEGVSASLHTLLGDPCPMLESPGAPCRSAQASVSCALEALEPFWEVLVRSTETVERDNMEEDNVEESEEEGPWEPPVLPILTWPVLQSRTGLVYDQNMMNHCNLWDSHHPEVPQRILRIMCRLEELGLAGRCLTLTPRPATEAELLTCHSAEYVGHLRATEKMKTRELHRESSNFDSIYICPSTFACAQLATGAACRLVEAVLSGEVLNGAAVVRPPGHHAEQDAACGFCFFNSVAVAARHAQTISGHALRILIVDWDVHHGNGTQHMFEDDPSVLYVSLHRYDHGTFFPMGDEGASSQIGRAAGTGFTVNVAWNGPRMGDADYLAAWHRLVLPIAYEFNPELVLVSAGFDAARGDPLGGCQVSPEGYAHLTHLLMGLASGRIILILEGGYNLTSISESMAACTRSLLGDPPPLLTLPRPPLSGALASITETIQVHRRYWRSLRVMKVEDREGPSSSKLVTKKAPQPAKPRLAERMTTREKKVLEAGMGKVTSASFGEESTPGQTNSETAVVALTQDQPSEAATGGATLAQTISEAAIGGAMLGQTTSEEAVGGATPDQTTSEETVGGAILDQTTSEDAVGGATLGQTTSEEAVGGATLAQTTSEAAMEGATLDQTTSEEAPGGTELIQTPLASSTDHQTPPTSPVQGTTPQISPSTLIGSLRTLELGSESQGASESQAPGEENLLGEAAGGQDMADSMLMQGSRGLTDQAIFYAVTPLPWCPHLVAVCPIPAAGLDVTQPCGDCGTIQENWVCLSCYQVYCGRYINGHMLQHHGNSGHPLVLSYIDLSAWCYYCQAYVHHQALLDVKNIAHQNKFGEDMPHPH
The experiment in a line: Human HDAC enzyme inhibitor Fluor-de-Lys assay, HDAC6. Format: biochemical. As for the experimental part:
(§1) Human HDAC Enzyme Inhibitor Fluor-De-Lys Assay
(§2) Recombinant human HDAC8 (BML-SE145-0100) and HDAC10 (BML-SE559-0050) enzymes, HDAC substrates BML-KI104 and BML-KI178, and HDAC developer solutions BML-KI105 and BML-KI176 were purchased from Enzo Life Sciences. […] HDAC inhibitor suberoylanilide hydroxamic acid (SAHA) was obtained from Indofine and trichostatin A (TSA) was obtained from Sigma-Aldrich.
(§3) The histone deacetylase activities of HDAC1, HDAC2, HDAC3, HDAC6, and HDAC8 were measured in modified FLUOR DE LYS assays in 384-well format. In this assay, HDAC enzymes are initially incubated with an ε-acetyl (or -trifluoroacetyl)-L-lysine-containing substrate with a C-terminal amide having aminomethylcoumarin as the amine component. HDACs cleave the ε-acetyl group, rendering the resulting product susceptible to AMC cleavage by trypsin. The released AMC is then detected by its fluorescence.
(§4) The HDAC3/SMRT assay employed buffer B, consisting of 20 mM HEPES, pH 8.0, 1 mM MgCl2, 50 mM NaCl, 2.7 mM KCl, 0.05% BSA, 0.005% Tween 20, and 10 μM IP4. […] The HDAC8 assay employed buffer D, consisting of 20 mM HEPES, pH 8.0, 1 mM MgCl2, 100 mM NaCl, 20 mM KCl, 0.10% n-octyl-β-D-glucoside (Anatrace) and 0.05% BSA. All steps were performed at room temperature (23° C.). The assay was performed by pre-incubating serial dilutions of test compounds with the target HDAC prior to initiation with substrate. Each compound was titrated in a 10-point dose response, using a 1:3 fold dilution scheme, with 0.15 ul of solution added by ECH0555 to the plate, followed by the addition of 20 μl of the appropriate HDAC isoform diluted in appropriate assay buffer. […] Final conditions used for each assay were: 1. HDAC 1, 0.3 nM total enzyme, 20 μM substrate BML-KI104; 2. […] HDAC 3/SMRT, 0.3 nM total enzyme, 20 μM substrate BML-KI104; 4. […] The reactions were stopped and developed by addition of 30 ul of HDAC developer solution containing a saturating level of HDAC inhibitor as follows: 1.

Another experiment concerns KARN cells (Jurkat 2C4). The experiment in a line: cells. Type of experiment: cell-based. As for the experimental part: KARN cells (Jurkat 2C4) were licensed from the laboratory of Dr. John Karn, Case Western Reserve University, School of Medicine. […] An atmosphere of 5% CO2 and 90% humidity was used for all culture work.
Day 1: After the 3-4 day growth period, the cells were transferred from the T175 flask to a 50 ml conical tube and gently pelleted at 1000 rpm for 5 minutes. […] These flasks were returned to the incubator.
Day 2: Cell Preparation: The next day, the cells were transferred from each T175 flask to an individual 50 ml conical tube and gently pelleted at 1000 rpm for 5 minutes. The cells were gently resuspended in assay media (30 ml) and pelleted again. […] The cells were counted using the ViCell (Beckman Coulter) and diluted as necessary. […] The plates were covered and returned to the incubator prior to compound addition.
The reference compounds, DMSO and SAHA were then added to the compound plate. […] The final high concentration for SAHA and the test compounds in the assays was 40 μM. The final DMSO concentration in all wells was 0.4%. The minimal induction reference compound used was DMSO and the maximal induction reference compound used was SAHA (2 μM final concentration in the assay).
Day 3: The luciferase detection reagent was prepared by transferring the contents of one bottle of Steady-Glo buffer to one bottle of Steady-Glo aubstrate (Steady-Glo Luciferase Assay System, Promega, catalog number E2520), followed by gently mixing until the substrate was thoroughly dissolved and the solution was equilibrated to room temperature. […] The Steady-Glo Reagent was added to the plates (30 μl/well), which were then covered with a black lid and incubated for 10 minutes at room temperature. The plates were then read for luminescence on an Envision (Perkin Elmer) using the ultrasensitive mode (US LUM), […] and 384-well aperture. Luminescence counts in the DMSO reference wells were considered as 0% induction, while those in the 2 μM SAHA reference wells were considered as 100% induction. Dose response curves were plotted as test compound concentration (X-axis) vs. percent activation (Y-axis) using a 4-parameter fit based on the Levenberg-Marquardt algorithm.

A further experiment deals with T2, Recombinant human HDAC8 (Homo sapiens, UniProt Q9BY41).
T2 construct: purchased Enzo Life Sciences BML-SE145-0100
T2 sequence (Q9BY41 1-377): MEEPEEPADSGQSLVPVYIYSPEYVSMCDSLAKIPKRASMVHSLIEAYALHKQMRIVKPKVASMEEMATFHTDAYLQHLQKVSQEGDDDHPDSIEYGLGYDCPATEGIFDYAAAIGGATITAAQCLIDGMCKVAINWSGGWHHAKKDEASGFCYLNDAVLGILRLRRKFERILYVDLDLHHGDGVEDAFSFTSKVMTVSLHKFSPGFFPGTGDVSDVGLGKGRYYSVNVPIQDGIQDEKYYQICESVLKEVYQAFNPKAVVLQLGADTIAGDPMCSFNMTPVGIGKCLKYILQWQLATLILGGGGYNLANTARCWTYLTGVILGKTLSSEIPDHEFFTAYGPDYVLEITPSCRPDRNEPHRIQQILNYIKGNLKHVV
Nature of the experiment: Human HDAC enzyme inhibitor Fluor-de-Lys assay, HDAC8. Format: biochemical. As for the experimental part:
as §1, §2, §3, §4

Where [1] appears, read: Homo sapiens, Jurkat, read-out: Karn EC50 (nM) 0.1% NHS, 0.1% normal human serum, luciferase induction, 100% = 2 μM SAHA.
[2] abbreviates: Homo sapiens, Jurkat, read-out: Karn EC50 (nM) 5% NHS, 5% normal human serum, luciferase induction, 100% = 2 μM SAHA.
The mark [3] stands for this setting: recombinant human HDAC8, Fluor-de-Lys assay.
[4] abbreviates: Homo sapiens, Jurkat, read-out: Karn EC50 (nM) 0.1% NHS, 0.1% normal human serum.
Setting [5] is: Homo sapiens, Jurkat, read-out: Karn EC50 (nM) 5% NHS, 5% normal human serum.

Read-outs that look alike come from different tables or passages of the source.

In the case of `CCC(=O)CCCCC[C@H](NC(=O)[C@H]1CC12CCCN(C)C2)c1ncc(-c2cc3ccccc3nc2OC)[nH]1` (stereo partly shown) [Compound 286], the 50% inhibitory concentration (IC50) against HDAC6 (HDAC6, Fluor-de-Lys assay) turned out to be 342 nM; on Recombinant human HDAC8 (setting [3]), 3870 nM. In addition, the EC50 turned out to be 116 nM in the experiment with KARN cells (Jurkat 2C4) (setting [1]) and 406 nM with KARN cells (Jurkat 2C4) (setting [2]).
As for `CCC(=O)CCCCC[C@H](NC(=O)[C@H]1CC12CCN(CC1CC1)CC2)c1ncc(-c2cc3ccccc3nc2OC)[nH]1` [Compound 336], the 50% inhibitory concentration (IC50) came out at 189 nM against HDAC6 (HDAC6, Fluor-de-Lys assay) and 3130 nM on Recombinant human HDAC8 (setting [3]). The half-maximal effective concentration (EC50) in the experiment on KARN cells (Jurkat 2C4) (setting [1]) worked out at 16 nM; with KARN cells (Jurkat 2C4) (setting [2]), 30 nM.
For `CCC(=O)CCCCC[C@H](NC(=O)[C@@H]1CC12CCN(C(N)=O)CC2)c1ncc(-c2cc3ccccc3nc2OC)[nH]1` (single isomer, unassigned) [Compound 318], in that order: 551 nM, 1200 nM, 861 nM and 4600 nM.
For `CCC(=O)CCCCC[C@H](NC(=O)C1CC2(CCN(C)CC2)C1)c1ncc(-c2cc3ccccc3nc2OC)[nH]1` [Compound 277], in that order: 405 nM, 1920 nM, 140 nM and 708 nM.
Turning to `CCC(=O)CCCCC[C@H](NC(=O)[C@H]1CC12CCN(CC)CC2)c1ncc(-c2ccc(C)cc2OC)[nH]1` [Compound 208], the IC50 against HDAC6 is 756 nM; on Recombinant human HDAC8 it was 1450 nM. Moreover, the EC50 came to 53 nM in the experiment with KARN cells (Jurkat 2C4) (setting [4]) and 63 nM in the experiment with KARN cells (Jurkat 2C4) (setting [5]).
On to `CCC(=O)CCCCC[C@H](NC(=O)[C@@H]1CC12CCN(C)CC2)c1ncc(-c2cc3ccccc3nc2OC)[nH]1` (single isomer, unassigned) [Compound 320], for which the half-inhibitory concentration (IC50) at HDAC6 (HDAC6, Fluor-de-Lys assay) was 709 nM; on Recombinant human HDAC8 (setting [3]) it was 14600 nM. The EC50 in the experiment with KARN cells (Jurkat 2C4) (setting [1]) worked out at 339 nM; in the experiment on KARN cells (Jurkat 2C4) (setting [2]) it was 1370 nM.
Regarding `CCC(=O)CCCCC[C@H](NC(=O)C1CCC2(CC1)CN(C)C2)c1ncc(-c2cc3ccccc3nc2OC)[nH]1` [Compound 315], the 50% inhibitory concentration (IC50) at HDAC6 (HDAC6, Fluor-de-Lys assay) worked out at 459 nM; at Recombinant human HDAC8 (setting [3]), 1950 nM. Further, the results for the EC50 in the experiment on KARN cells (Jurkat 2C4) (setting [1]) and in the experiment on KARN cells (Jurkat 2C4) (setting [2]) were 86 nM and 688 nM, respectively.
For `CCC(=O)CCCCC[C@H](NC(=O)C1CC2(C1)CN(CC)C2)c1ncc(-c2cc3ccccc3nc2OC)[nH]1` [Compound 279], in that order: 362 nM, 5120 nM, 160 nM and 860 nM.
`CCC(=O)CCCCC[C@H](NC(=O)C1CC12CCC(N(C)C)CC2)c1ncc(-c2cc3ccccc3nc2OC)[nH]1` (single isomer, unassigned) [Compound 127]: the values for the IC50 on HDAC6 and at Recombinant human HDAC8 were 364 nM and 76 nM, respectively. Moreover, the EC50 was found to be 37 nM in the experiment on KARN cells (Jurkat 2C4) (read-out: Karn EC50 (nM) 0.1% NHS, 0.1% normal human serum) and 60 nM with KARN cells (Jurkat 2C4) (read-out: Karn EC50 (nM) 5% NHS, 5% normal human serum).
As to `CCC(=O)CCCCC[C@H](NC(=O)[C@H]1CC12CCN(CC)CC2)c1ncc(-c2ccc(F)cc2OC)[nH]1` [Compound 197], the half-maximal inhibitory concentration (IC50) against HDAC6 is 3380 nM; at Recombinant human HDAC8 it was 7540 nM. Further, the half-maximal effective concentration (EC50) in the experiment with KARN cells (Jurkat 2C4) (setting [4]) was 369 nM; in the experiment on KARN cells (Jurkat 2C4) (setting [5]), 538 nM.
In the case of `CCC(=O)CCCCC[C@H](NC(=O)[C@H]1CC12CCN(Cc1ccc(OC)cc1)CC2)c1ncc(-c2cc3ccccc3nc2OC)[nH]1` [Compound 295], the half-inhibitory concentration (IC50) turned out to be 973 nM at HDAC6 (HDAC6, Fluor-de-Lys assay) and 3230 nM on Recombinant human HDAC8 (setting [3]). Further, the figures for the 50% effective concentration (EC50) in the experiment on KARN cells (Jurkat 2C4) (setting [1]) and in the experiment with KARN cells (Jurkat 2C4) (setting [2]) were 113 nM and 180 nM, respectively.
As to `CCC(=O)CCCCC[C@H](NC(=O)[C@H]1CC12CCN(CC)CC2)c1ncc(-c2cc3nn(C)cc3cc2OC)[nH]1` [Compound 190], the IC50 worked out at 562 nM on HDAC6 and 3110 nM on Recombinant human HDAC8. The figures for the half-maximal effective concentration (EC50) with KARN cells (Jurkat 2C4) (setting [4]) and in the experiment on KARN cells (Jurkat 2C4) (setting [5]) were 967 nM and 1450 nM, respectively.
Consider `CCC(=O)CCCCC[C@H](NC(=O)[C@H]1CC12CCN(Cc1cccnc1)CC2)c1ncc(-c2cc3ccccc3nc2OC)[nH]1` [Compound 294], for which the IC50 stood at 415 nM against HDAC6 (HDAC6, Fluor-de-Lys assay) and 4920 nM on Recombinant human HDAC8 (setting [3]). The values for the 50% effective concentration (EC50) in the experiment with KARN cells (Jurkat 2C4) (setting [1]) and in the experiment with KARN cells (Jurkat 2C4) (setting [2]) were 63 nM and 277 nM, respectively.

A word on the IC50: it is the midpoint of a concentration-inhibition curve. The EC50 is the midpoint of the concentration-response curve.
